Assay results as given in article PMC12363342, “Investigating the N-terminal linker histone H1 subtypes as substrates for JmjC lysine demethylases” (RSC Chemical Biology, 2025).
Square brackets hold non-standard residues; d marks the D form. Ends that are not written are not given here. Lys(Me2) = CN(C)CCCC[C@H](N)C(=O)O

Tests used:
KDM3B = assay: LC-MS demethylation activity assay, KDM3B; format: biochemical, human; conditions: 2 μM KDM, 10 μM H1/H3 peptide, 10 μM FAS, 100 μM LAA, 20 μM 2OG, 50 mM HEPES pH 7.5, 2 h, room temperature; for KDM3B demethylation activity, M: M (mono-) initial methylation state; for KDM3B demethylation activity, D: D (di-) initial methylation state
Experimental: (§1) The substrate specificity of JmjC KDMs for H1 was examined using liquid chromatography coupled to mass spectrometry (LC-MS) assays. The H1 peptides (10 μM) were incubated with the recombinant KDM (2 μM) in HEPES buffer at pH 7.5 at room temperature for 2 h, in the presence of ferrous(II) ammonium sulfate (FAS, 10 μM), sodium ascorbate (LAA, 100 μM) and 2OG (20 μM), and then quenched with formic acid. N^ε-Methylated H3K9 and H3K36 peptides were used as positive controls (Fig. 3–5 and Fig. S2–S6).[26]
(§2) The catalytic domains of the JmjC KDMs used were recombinantly produced as reported in either Escherichia coli (KDM4AM1-L359,[38] KDM4DM1-L359,[39] KDM4EM1-R336,[30] KDM6BD1141–E1590[40] and KDM3CL2157-L2500) or Sf9 cells (KDM3AT515–S1317, KDM3B882–1761, and KDM5DM1-D775) as N-terminally His6-tagged proteins. […] To produce proteins, DNA sequences encoding for KDM3A, KDM3B and KDM5D were inserted into the pFB-LIC vector, containing a TEV-protease cleavable N-terminal 6x-histidine tag via ligation independent cloning (LIC). The resultant plasmids were transformed into baculovirus and Sf9 cells ([…]) which were infected with the virus stock. The cells were grown at 27 °C and 90 rpm for 70 h. Cells were then harvested and suspended in 100 mL of lysis buffer (50 mM HEPES-NaOH, pH 7.4, 500 mM NaCl, 20 mM imidazole, 0.5 mM Tris (2-carboxyethyl)phosphine (TCEP), 5% (v/v) glycerol). […] The supernatant was loaded onto a Ni-NTA gravity column, washed with 10 column volume of lysis buffer and eluted using the elution buffer (50 mM HEPES-NaOH, pH 7.4, 500 mM NaCl, 300 mM imidazole, 0.5 mM TCEP, 5% (v/v) glycerol). The eluted protein was further purified using S200 gel filtration column chromatography (50 mM HEPES-NaOH, pH 7.4, 150 mM NaCl, 0.5 mM TCEP and 5% glycerol). Protein purity was analysed by SDS-PAGE and further confirmed by mass spectrometry. Selected fractions were pooled, concentrated and stored at −80 °C.
(§3) All reagents were purchased from Sigma Aldrich and were of the highest grade available. Ferrous(II) ammonium sulfate (FAS) solutions were prepared freshly by dissolving FAS to 400 mM in 20 mM HCl with subsequent dilution to 1 mM using deionized water. Fresh 2OG (10 mM) and LAA (50 mM) solutions were prepared by dissolving the solids in deionised water. All enzyme reactions were performed in 384-well plates (Greiner Bio-One) with a final reaction volume of 50 μL. Substrate mixtures contained 50 mM HEPES pH 7.5, LAA (100 μM), FAS (10 μM), 2OG (20 μM) and an H1 isoform peptide (10 μM). Reactions were initiated by the addition of enzyme to a final concentration of 2.0 μM. After 2 h, the reactions were stopped by the addition of 5 μL of 10% (v/v) LC-MS grade formic acid (Fisher Scientific) to a final concentration of 1% (v/v). Product analyses were performed by liquid chromatography-mass spectrometry (LC-MS) using an Agilent 1290 infinity II LC system equipped with an Agilent 1290 multisampler and an Agilent 1290 high speed pump and connected to an Agilent 6550 accurate mass iFunnel quadrupole time of flight (Q-TOF) mass spectrometer. 1 μL of the reaction mixture was injected onto a 1.8 μm × 2.1 × 50 mm ZORBAX RRHD Eclipse Plus C18 column (Agilent). Solvent A consisted of HPLC grade water containing 0.1% (v/v) formic acid and solvent B consisted of MeCN containing 0.1% (v/v) formic acid. Peptides were separated using a stepwise gradient (0 min – 95% solvent A, 1.0 min – 80% solvent A, 3.0 min – 45% solvent A, 4.0 min – 45% solvent A, 5.0 min – 0% solvent A, 6.0 min – 0% solvent A, 7.0 min – 95% solvent A). This was followed by a 3 min post-run with 95% solvent A to re-equilibrate the column. All flow rates were 0.2 mL min^−1. A blank injection of HPLC grade water was carried out between each sample injection.

KDM5D = assay: LC-MS demethylation activity assay, KDM5D; format: biochemical, human; conditions: 2 μM KDM, 10 μM H1/H3 peptide, 10 μM FAS, 100 μM LAA, 20 μM 2OG, 50 mM HEPES pH 7.5, 2 h, room temperature; for KDM5D demethylation activity, M: M (mono-) initial methylation state; for KDM5D demethylation activity, D: D (di-) initial methylation state
Experimental: as §1, §2, §3

KDM3C = assay: LC-MS demethylation activity assay, KDM3C; format: biochemical, human; conditions: 2 μM KDM, 10 μM H1/H3 peptide, 10 μM FAS, 100 μM LAA, 20 μM 2OG, 50 mM HEPES pH 7.5, 2 h, room temperature; for KDM3C demethylation activity, M: M (mono-) initial methylation state; for KDM3C demethylation activity, D: D (di-) initial methylation state
Experimental: as §1, §2, §3

KDM6B = assay: LC-MS demethylation activity assay, KDM6B; format: biochemical, human; conditions: 2 μM KDM, 10 μM H1/H3 peptide, 10 μM FAS, 100 μM LAA, 20 μM 2OG, 50 mM HEPES pH 7.5, 2 h, room temperature; for KDM6B demethylation activity, M: M (mono-) initial methylation state; for KDM6B demethylation activity, D: D (di-) initial methylation state
Experimental: as §1, §2, §3

KDM4D = biological target: T1, KDM4D (Homo sapiens, UniProt Q6B0I6); assay: LC-MS demethylation activity assay, KDM4D; format: biochemical; conditions: 10 μM FAS, 100 μM LAA, 20 μM 2OG, room temperature; for KDM4D demethylation activity, M / KDM4D demethylation activity, D: 2 μM KDM, 10 μM H1/H3 peptide, 50 mM HEPES pH 7.5, 2 h; for KDM4D demethylation activity, M: M (mono-) initial methylation state; for substrate conversion (demethylation) by KDM4D: 2 μM KDM4D, 10 μM peptide, HEPES pH 7.5, 2 h; for KDM4D demethylation activity, D: D (di-) initial methylation state
T1 construct: KDM4AM1-L359,[38]; KDM4DM1-L359,[39]; KDM4EM1-R336,[30]; His6 (N); made in house; host or cells: Escherichia coli
T1 sequence (Q6B0I6 1-359): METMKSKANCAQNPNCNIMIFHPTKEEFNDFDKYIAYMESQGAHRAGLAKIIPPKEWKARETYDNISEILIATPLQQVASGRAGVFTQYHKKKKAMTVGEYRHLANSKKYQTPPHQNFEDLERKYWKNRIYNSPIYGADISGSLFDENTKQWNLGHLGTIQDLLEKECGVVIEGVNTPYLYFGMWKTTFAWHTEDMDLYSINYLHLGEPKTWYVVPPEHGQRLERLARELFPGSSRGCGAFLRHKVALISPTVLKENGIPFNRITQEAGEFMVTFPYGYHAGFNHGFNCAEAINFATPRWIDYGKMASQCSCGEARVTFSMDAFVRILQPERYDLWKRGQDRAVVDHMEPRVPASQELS
Experimental: as §1, §2, §3

KDM4A = assay: LC-MS demethylation activity assay, KDM4A; format: biochemical, human; conditions: 2 μM KDM, 10 μM H1/H3 peptide, 10 μM FAS, 100 μM LAA, 20 μM 2OG, 50 mM HEPES pH 7.5, 2 h, room temperature; for KDM4A demethylation activity, M: M (mono-) initial methylation state; for KDM4A demethylation activity, D: D (di-) initial methylation state
Experimental: as §1, §2, §3

KDM3A = assay: LC-MS demethylation activity assay, KDM3A; format: biochemical, human; conditions: 2 μM KDM, 10 μM H1/H3 peptide, 10 μM FAS, 100 μM LAA, 20 μM 2OG, 50 mM HEPES pH 7.5, 2 h, room temperature; for KDM3A demethylation activity, M: M (mono-) initial methylation state; for KDM3A demethylation activity, D: D (di-) initial methylation state
Experimental: as §1, §2, §3

KDM4E = biological target: T2, KDM4E (Homo sapiens, UniProt B2RXH2); assay: LC-MS demethylation activity assay, KDM4E; format: biochemical; conditions: room temperature; for mono-methylated product formed by KDM4E: 2 μM KDM4E, 10 μM peptide, standard conditions, 2 h; for KDM4E demethylation activity, D / KDM4E demethylation activity, M: 2 μM KDM, 10 μM H1/H3 peptide, 10 μM FAS, 100 μM LAA, 20 μM 2OG, 50 mM HEPES pH 7.5, 2 h; for KDM4E demethylation activity, D: D (di-) initial methylation state; for KDM4E demethylation activity, M: M (mono-) initial methylation state
T2 construct: KDM4DM1-L359,[39]; KDM4EM1-R336,[30]; His6 (N); made in house; host or cells: Escherichia coli
T2 sequence (B2RXH2 1-336): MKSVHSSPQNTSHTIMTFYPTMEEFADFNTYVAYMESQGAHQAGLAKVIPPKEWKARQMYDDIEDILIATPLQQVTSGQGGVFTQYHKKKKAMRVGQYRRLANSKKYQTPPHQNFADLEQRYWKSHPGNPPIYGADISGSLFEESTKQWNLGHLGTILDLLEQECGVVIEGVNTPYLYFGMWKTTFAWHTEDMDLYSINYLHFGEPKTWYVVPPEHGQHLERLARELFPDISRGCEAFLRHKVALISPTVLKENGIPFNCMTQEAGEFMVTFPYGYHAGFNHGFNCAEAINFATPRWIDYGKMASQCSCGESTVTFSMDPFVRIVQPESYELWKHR
Experimental: as §1, §2, §3

| Substance | KDM3B demethylation activity, M (KDM3B) | KDM5D demethylation activity, M (KDM5D) | KDM3C demethylation activity, M (KDM3C) | KDM6B demethylation activity, M (KDM6B) | KDM4D demethylation activity, M (KDM4D) | KDM4A demethylation activity, M (KDM4A) | KDM3A demethylation activity, M (KDM3A) | KDM3B demethylation activity, D (KDM3B) | KDM5D demethylation activity, D (KDM5D) | KDM3C demethylation activity, D (KDM3C) | KDM6B demethylation activity, D (KDM6B) | substrate conversion (demethylation) by KDM4D (KDM4D) | KDM4D demethylation activity, D (KDM4D) | mono-methylated product formed by KDM4E (KDM4E) | KDM4E demethylation activity, D (KDM4E) | KDM4A demethylation activity, D (KDM4A) | KDM3A demethylation activity, D (KDM3A) | KDM4E demethylation activity, M (KDM4E) |
| --- | --- | --- | --- | --- | --- | --- | --- | --- | --- | --- | --- | --- | --- | --- | --- | --- | --- | --- |
| KKKAAKKmeAGGTPRKA [Peptide H1.2K26me, 15-mer linker histone H1.2 residues 20-34 peptide, mono-methylated K26] | ● [red] | ● [red] | ● [red] | ● [red] | ● [red] | ● [red] | ● [red] | – | – | – | – | – | – | – | – | – | – | – |
| KKKAAK[Lys(Me2)]AGGTPRKA [Peptide H1.2K26me2, 15-mer linker histone H1.2 residues 20-34 peptide, di-methylated K26] | – | – | – | – | – | – | – | ● [red] | ● [red] | ● [red] | ● [red] | 20–35% | ● [yellow] (yellow dots indicate moderate demethylation (<50% conversion)) | ~64% | ● [green] (green dots indicate good demethylation (>50% conversion)) | ● [red] | ● [red] | – |
| KKKAAKmeKAGGTPRKA [Peptide H1.2K25me, 15-mer linker histone H1.2 residues 20-34 peptide, mono-methylated K25] | ● [red] | ● [red] | ● [red] | ● [red] | ● [red] | ● [red] | ● [red] | – | – | – | – | – | – | – | – | – | – | ● [red] |
| KKKAA[Lys(Me2)]KAGGTPRKA [Peptide H1.2K25me2, 15-mer linker histone H1.2 residues 20-34 peptide, di-methylated K25] | – | – | – | – | – | – | – | ● [red] | ● [red] | ● [red] | ● [red] | 20–35% | ● [red] | ~64% | ● [red] | ● [black] (black dots indicate low-level demethylation (<10% conversion)) | ● [red] | – |
| KKKAKKmeAGATAGKRK [Peptide H1.3K25me, 15-mer linker histone H1.3 residues 20-34 peptide, mono-methylated K25] | ● [red] | ● [red] | ● [red] | ● [red] | ● [red] | ● [red] | ● [red] | – | – | – | – | – | – | – | – | – | – | ● [red] |
| KKKAK[Lys(Me2)]AGATAGKRK [Peptide H1.3K25me2, 15-mer linker histone H1.3 residues 20-34 peptide, di-methylated K25] | – | – | – | – | – | – | – | ● [red] | ● [red] | ● [red] | ● [red] | – | ● [red] | – | ● [red] | ● [red] | ● [red] | – |
| KKKAKmeKAGATAGKRK [Peptide H1.3K24me, 15-mer linker histone H1.3 residues 20-34 peptide, mono-methylated K24] | ● [red] | ● [red] | ● [red] | ● [red] | ● [red] | ● [red] | ● [red] | – | – | – | – | – | – | – | – | – | – | – |
| KKKARKmeSAGAAKRKA [Peptide H1.4K25me, 15-mer linker histone H1.4 residues 20-34 peptide, mono-methylated K25] | ● [red] | ● [red] | ● [red] | ● [red] | ● [black] (black dots indicate low-level demethylation (<10% conversion)) | ● [red] | ● [red] | – | – | – | – | – | – | – | – | – | – | – |
